{"source": "patent US20160220609A1", "about": "“REGULATION OF STEROIDOGENIC ACTIVITY BY USING PURIFIED SHILAJIT” (NATREON, INC., priority 2013, published 2016)", "tested_on": "steroidogenic genes in mouse skeletal muscle", "assay": "Gene expression profiling (Affymetrix GeneChip) of skeletal muscle of mice supplemented for 12 weeks", "assay_type": "in vivo", "details": "10 mg/kg body weight intragastric in DMSO/corn oil", "protocol": "Procedure for Studies in Mice Using Shilajit and DBPs:\nThree groups of adult mice (n=8) were intragastrically supplemented with purified Shilajit (PS), 3,8-(OH)2-DBP, or placebo for 12 weeks. At the end of week 12, skeletal muscle tissue was harvested for gene profiling. Some tissue was stored for histology and HPLC analysis.\nThe control group of mice received DMSO in corn oil while the PS group received 100 mg of purified Shilajit/kg body weight of mice, dissolved in water and the DBP group received 10 mg of 3,8-(OH)2-DBP/kg body weight of mice, dissolved in DMSO/corn oil.\nAt week 12, the following tissues were collected from mice: heart, lung, liver, brain, muscles, adipose tissue, skeletal muscle (vastus lateralis) and whole blood.\nGene Expression Profiling using GeneChip® Assay\nAffymetrix GeneChip® technology (Affymetrix, Santa Clara, Calif.) was used for transcriptome profiling of skeletal muscle tissue. Gene chip assays were performed in accordance with the following references: Roy, S., Biswas, S., Khanna, S., Gordillo, G., Bergdall, V., Green, J., Marsh, C. B., Gould, L. J., Sen, C. K., “Characterization of a preclinical model of chronic ischemic wound,” Physiol. Genomics (2009) May 13; 37(3):211-24; Roy, S., Khanna, S., Rink, C., Biswas, S., Sen, C. […]", "data": [{"smiles": "O=c1oc2cc(O)ccc2c2ccc(O)cc12", "note": "[3,8-(OH)2-DBP, 3,8-dihydroxy-dibenzo-a-pyrone]", "values": [{"measurement": "Effect on steroidogenic activity in mice", "value": "did not show significant effect"}]}]}
